Residues, ends and D or L forms follow the SMILES beside them.
Tests used:
[1] = tested on: human serum albumin; experiment: Prevention of albumin carbamylation by cyanate in the presence of competing nucleophiles (% C-Alb by LC-MS); conditions: 10 mM scavenger, 0.25 mM cyanate, 37° C., 14 hours; for % CarbAlb Average +/− SD / % Decrease compared to no inhibitor: human serum albumin 4 mg/ml
Procedure: The pH of each was adjusted to pH 7.4 using HCl. HSA (4 mg/mL) was added to each amino acid solution, and then mixed 1:1 with 0.5 mM potassium cyanate in 100 mM potassium phosphate pH 7.4 (0.25 mM cyanate final concentration). […] Desalted albumin was then denatured and digested for analysis as described above.
To this, we added 0.25 mM cyanate, incubated at 37° C. for 14 hours, and analyzed for % C-Alb thereafter (Table 11).

[2] = Cyanate titration of an equimolar amino acid mixture (susceptibility of amino acids to carbamylation); conditions: increasing cyanate, physiological buffer pH 7.4, overnight 37° C.
Procedure: Carbamylation titration experiments were performed using an amino acid standard mix from Sigma Aldrich (Cat. No. AAS18) supplemented with tryptophan, cysteine, and glutamine; all amino acids were equimolar (2.5 mM stock). The 0.1 N HCl in the standard solution was neutralized with ammonium hydroxide and removed by lyophilization, and the dried amino acids were diluted to final concentration of 50 μM (each) in 100 mM potassium phosphate pH 7.4. […] Carbamylation was halted with addition of 1 M HCl, and excess cyanate and HCl were removed by vacuum lyophilization at room temperature. Isotopic standards were then mixed with the reactions, the tube were re-lyophilized, and amino acid mixtures were then S-alkylated with iodoacetamide, butylated with butanolic HCl, and analyzed using methods similar to those described for serum amino acids.
To differentiate the isocyanate-scavenging ability of individual amino acids, we added increasing concentrations of cyanate to an equimolar mixture of all twenty amino acids in a physiological buffer. As expected, increasing concentration of cyanate produced linear increases of all carbamylated amino acids and depletion of their unmodified forms (FIGS. 9A and 9B). From the titration curves, we calculated the cyanate concentration at which 10% unmodified amino acid forms were depleted.

Row | % Decrease compared to no inhibitor [1] | SMILES | % CarbAlb Average +/− SD [1] | Susceptibility to carbamylation / cyanate binding (in words) [2] | Prevention of C-Alb formation / cyanate scavenging (in words) [1]
1 | – | C[C@H](N)C(=O)O [Alanine] | 32 ± 1.7% | – | –
2 | – | N=C(N)NCCC[C@H](N)C(=O)O [Arginine] | 27 ± 1.6% | prone to carbamylation at low cyanate concentrations | –
3 | – | N[C@@H](CS)C(=O)O [Cysteine] | 23 ± 1.9% | very high cyanate binding avidity by the free thiol group | prevented C-Alb formation
4 | 3% | N[C@@H](CCC(=O)O)C(=O)O [Glutamate] | 38 ± 1.2% | – | –
5 | – | NC(=O)CC[C@H](N)C(=O)O [Glutamine] | 32 ± 2.9% | – | –
6 | – | N[C@@H](CCC(=O)N[C@@H](CS)C(=O)NCC(=O)O)C(=O)O [Glutathione] | 29 ± 1.4% | – | –
7 | – | NCC(=O)O [Glycine] | 31 ± 1.8% | – | –
8 | – | NCC(=O)NCC(=O)O [Glycylglycine] (H-Gly-Gly-OH) | – | more strongly carbamylated than glycine or other amino acids | –
9 | – | N[C@@H](Cc1c[nH]cn1)C(=O)O [Histidine] | 26 ± 1.0% | prone to carbamylation at low cyanate concentrations | –
10 | – | CC(C)C[C@H](N)C(=O)O [Leucine] | 37 ± 2.2% | – | –
11 | – | O=C(O)[C@@H]1CCCN1 [Proline] | 34 ± 1.6% | – | –
12 | – | NCCS(=O)(=O)O [Taurine] | 22 ± 1.7% | – | effectively scavenged cyanate
13 | – | N[C@@H](Cc1c[nH]c2ccccc12)C(=O)O [Tryptophan] | 32 ± 2.7% | – | –
14 | 16% | CC(C)[C@H](N)C(=O)O [Valine] | 33 ± 1.1% | – | –

Row | SMILES | % Decrease compared to no inhibitor [1] | % CarbAlb Average +/− SD [1] | Susceptibility to carbamylation / cyanate binding (in words) [2] | Prevention of C-Alb formation / cyanate scavenging (in words) [1]
15 | NCCCC[C@H](N)C(=O)O [Lysine] | 21% | 31 ± 0.9% | did not avidly bind cyanate | –
